Source: patent publication US6338963B1, “Use of carbon monoxide dependent guanylyl cyclase modifiers to stimulate neuritogenesis” (NeoTherapeutics, Inc., priority 1994, dated 2002)
Where a name gives a salt, the structure may show the parent alone. Marks after values point to notes of the source that are not given here.

Assays:
[1] = tested on: cultured rat hippocampal neurons; experiment: NMDA-induced toxicity in cultured rat hippocampal neurons, astrocyte conditioned medium; conditions: NMDA 100 μM pulse of 10 min.
Method: To determine whether or not AIT-082 afforded in vitro neuroprotection, the effect of AIT-082 on toxicity induced by N-methyl-D-aspartate (NMDA) in cultured rat hippocampal neurons was studied.
To determine whether AIT-082 protected against neuronal toxicity induced by NMDA, and whether astrocytes might be involved, cultured astrocytes were exposed to AIT-082 for 6 hr. The drug was then removed and cultures were kept in fresh medium for the following 20 hr. This conditioned medium was then added to primary cultures of rat hippocampal neurons on the seventh day in vitro, immediately after they had been exposed to a toxic pulse of NMDA.
It was next evaluated whether the addition of conditioned medium (CM) deriving from astrocyte cultures treated with 100 μM AIT-082 generated protection against damage induced by a toxic pulse with 100 μM NMDA in cultured neurons.
The effects of NMDA are shown in FIG. 66A on cortical cells and in FIG. 66B for hippocampal cells.

[2] = tested on: cultured neurons from rat cerebral cortex; experiment: NMDA-induced toxicity in cultured rat cortical neurons, astrocyte conditioned medium; type: cell-based; conditions: NMDA pulse 100 μM for 10 min, Trypan blue or LDH
Method: In these experiments, cultured neurons were prepared from rat cerebral cortex. In these cultures the NMDA pulse (100 μM for 10 min) provoked about 80% neuronal death (measured by Trypan blue cell staining or LDH activity). Separately, cultured astrocytes were treated for 6 hours with AIT-082. Then, the medium containing the drug was replaced with fresh medium without the drug and the astrocyte cultures were maintained in this medium for the next 24 hours. This medium represented the CM and was added to neurons soon after the toxic pulse with NMDA. The addition of CM partly counteracted the toxic effects caused by NMDA, reducing the neuronal damage by about 50%. If the medium was boiled for 20 min at 100° C. prior to addition to NMDA-damaged neurons, it completely lost the protective activity. […] To verify whether the neuroprotection caused by AIT-082 was ascribable to the production of TGFβ2 or NGF, antibodies to TGFβ2 or to NGF (100 ng/ml) were added together with CM.
Conversely, when DPCPX (100 nm) was added to astrocyte cultures together with AIT-082, the neuroprotective effect of the resulting CM deriving from the culture of the astrocytes with AIT-082 was reduced by only 20%, as compared to the neuroprotective effect of CM derived from astrocytes exposed to AIT-082 alone (assumed as equal to 100%).

rat caudate nuclei = experiment: GAD activity in rat caudate nuclei damaged by NMDA; type: in vivo; conditions: NMDA 25-300 nmoles infused unilaterally, maximal lesion, 8 to 10 days
Method: The effect of AIT-082 on in vivo neuroprotection was also assessed by assaying for glutamic acid decarboxylase (GAD) activity.
GAD activity in rat caudate nuclei was damaged in vivo by NMDA. Increasing amounts of NMDA (25-300 nmoles) were unilaterally infused into caudate nuclei of rats. Eight to 10 days after the injections, glutarnic acid decarboxylase (GAD) activity was assayed, as an index of the loss of GABA-ergic neurons. NMDA produced a dose-dependent lesion, which at its maximal extension caused a reduction of GAD activity by 50% in comparison with that of contralateral sham-operated nuclei (control). […] The necrotic areas are in white, whereas the shadow is the surrounding edema GAD activity was evaluated by measuring the ex novo formation of [^3H]GABA from dissected striata exposed to 1 μCi of [^3H]glutamate for 1 hour at 37° C. GABA was assayed by HPLC with fluorescence detection and the [3H]label associated with GABA was measured.

Swiss Webster mice [3] = experiment: Win-shift T-maze memory test, Swiss Webster mice; type: in vivo; conditions: 90-second inter-trial interval, THA 1.25 mg/kg i.p.
Method: Male Swiss Webster mice six months (young adult) and eleven months (old) of age, obtained from the National Institute on Aging, were maintained in individual cages, on a […] light/dark cycle with continuous access to water. Food was limited so that the mice stabilized at 80% of free feeding weight. Mice were weighed and handled daily for one week. The win-shift model was run as described in the literature and consists of a T-maze in which the correct response alternates after each correct trial. The interval between trials is varied and allows for the determination of the longest period between trials that a subject can remember the correct response on the previous trial. This allows the measure of the duration of the memory trace. […] The reward goal box is alternated after each correct trial. Ten trials per mouse are run each day. […] The latency time to leave the start box is recorded as a measure of motivation, the running time (the time from leaving the start box to reaching the goal box) is recorded as a measure of performance, and the number of correct responses as a measure of memory.
(§1) The drugs used in this example are 4-((3-(1,6-dihydro-6-oxo-9-purin-9-yl)-1-oxopropyl)amino) benzoic acid (AIT-082), as an exemplary potassium salt, tacrine hydrochloride (tetrahydroaminoacridine, THA, Sigma Chemical Co., St. Louis, Mo.), and physostigmine, hemisulfate salt (PHY, Sigma Chemical Co., St. Louis, Mo.). The drugs were dissolved in saline and prepared fresh daily. All injections were made at a volume of 0.1 ml/10 grams body weight. When testing drug effects, intraperitoneal (i.p.) injections of AIT-082 or THA were made one hour prior to the start of testing. Due to its shorter duration of action, PHY was injected 30 minutes prior to testing. Control subjects receive a similar injection of saline (vehicle).
To determine the duration of the memory trace, subjects were administered drug or saline and 30 minutes (PHY) or 1 hour (AIT-082 or THA) later they were given a single reference run with the milk reward in both goal boxes. After the indicated inter-trial delay, subjects were returned to the start box and given the first test trial with the milk reward only in the goal box opposite to the one entered on the previous correct trial. The subjects were given 10 trials with the reward alternating only after correct responses.
To determine if tolerance to the biological effects of AIT-082 developed, drug or saline was administered daily for 18 days prior to the testing in the standard win-shift paradigm.

Swiss Webster mice [4] = experiment: Locomotor activity (spontaneous movements), Swiss Webster mice; type: in vivo; conditions: THA 1.25 mg/kg
Method: The activity of AIT-082 was compared with tacrine (THA) and physostigmine (PHY), experimental anticholinesterase agents which enhance memory in animals. The drugs were also evaluated for their effects on locomotor activity. In the win-shift memory paradigm, AIT-082 was evaluated for its ability to induce tolerance after 18 days of drug administration. In addition AIT-082 was tested for its activity to modify learning in a modified T-maze discrimination task.
as §1

In the case of `CN[C@H](CC(=O)O)C(=O)O` [NMDA, N-methyl-D-aspartate], the “death of the cultured neurons” value [1] is reported as about 75%, the “Count of Dead Cells (Trypan Blue Staining)” value ([1]; within 24 hours) is reported as 401.4 ± 27.3 and the LDH ([1]; within 24 hours) is reported as 262.8 ± 13.4 mOD/min. For the same molecule, the neuronal death [2] was “about 80%” and the “reduction of GAD activity versus contralateral sham-operated nuclei” value (rat caudate nuclei) was 50%.
With `Nc1c2c(nc3ccccc13)CCCC2` [THA, tacrine hydrochloride, reference compound] the “Win-shift Memory Test, Correct responses” value (Swiss Webster mice [3]) was 7.1* Correct responses/10 trials and the “Locomotor Activity” value (Swiss Webster mice [4]) was 671* Spontaneous movements per hour.
